Measurements from PubChem BioAssay AID1963428 (Molecular Pharmacology Branch, DTP, NCI, 2024).

System: 171881-019-R-J1-PDC complex spheroid growth, % test/control
Assay: Anticancer human tumor 171881-019-R-J1-PDC patient-derived invasive breast carcinoma cell line growth inhibition [Asc]
Settings: for IC50: curve of first compound; for viability, T/C: stronger effect = lower value
Procedure, shortened: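 Tumor cells were grown as multicellular spheroids with stromal HUVEC and mesenchymal stem cells and treated singly or in combination. Concentrations fell in half-log steps from the clinical Cmax, or from 10 microM where none was known.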

[1] = second compound 0.1 µM, first compound 0.00316 µM
[2] = second compound 0.1 µM, first compound 0.01 µM
[3] = second compound 0.1 µM, first compound 0.0316 µM
[4] = second compound 0.1 µM, first compound 0.1 µM
[5] = second compound 0.316 µM, first compound 0.00316 µM
[6] = second compound 0.316 µM, first compound 0.01 µM
[7] = second compound 0.316 µM, first compound 0.0316 µM
[8] = second compound 0.316 µM, first compound 0.1 µM
[9] = second compound 1 µM, first compound 0.00316 µM
[10] = second compound 1 µM, first compound 0.01 µM
[11] = second compound 1 µM, first compound 0.0316 µM
[12] = second compound 1 µM, first compound 0.1 µM
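Wherever viability, T/C is given: spheroids exposed to compounds for 7 days.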

COc1c(OCCCN2CCOCC2)ccc2c3n(c(=NC(=O)c4cnc(N)nc4)nc12)CCN3 + Cc1c(S(C)(=O)=O)c(-c2cc(F)cc(N3CCN(c4ccc(NS(=O)(=O)c5ccc(NC(CCN6CCC(C(=O)OCCCP(=O)(O)O)CC6)CSc6ccccc6)c(S(=O)(=O)C(F)(F)F)c5)cc4)CC3)c2)c(-c2ccc(Cl)cc2)n1C(C)C
IC50 (second compound 0.1 µM): 21.8 nM
IC50 (second compound 0.316 µM): 13.8 nM
IC50 (second compound 1 µM): 9.37 nM
IC50 (second compound 3.16 µM): 4.99 nM
IC50 (second compound 10 µM): 4.6 nM
viability, T/C [1]: 148%
viability, T/C [2]: 91.5%
viability, T/C [3]: 30.1%
viability, T/C [4]: 7.28%
viability, T/C (second compound 0.1 µM, first compound 0.316 µM): 1.11%
viability, T/C (second compound 0.1 µM, first compound 1 µM): 0.49%
viability, T/C [5]: 129%
viability, T/C [6]: 62.6%
viability, T/C [7]: 17%
viability, T/C [8]: 5.34%
viability, T/C (second compound 0.316 µM, first compound 0.316 µM): 0.77%
viability, T/C (second compound 0.316 µM, first compound 1 µM): 0.4%
viability, T/C [9]: 102%
viability, T/C [10]: 46.9%
viability, T/C [11]: 12.7%
viability, T/C [12]: 3.92%
viability, T/C (second compound 1 µM, first compound 0.316 µM): 0.8%
viability, T/C (second compound 1 µM, first compound 1 µM): 0.9%
viability, T/C (second compound 3.16 µM, first compound 0.00316 µM): 64.2%
viability, T/C (second compound 3.16 µM, first compound 0.01 µM): 28.2%
viability, T/C (second compound 3.16 µM, first compound 0.0316 µM): 8.79%
viability, T/C (second compound 3.16 µM, first compound 0.1 µM): 1.69%
viability, T/C (second compound 3.16 µM, first compound 0.316 µM): 0.26%
viability, T/C (second compound 3.16 µM, first compound 1 µM): 0.49%
viability, T/C (second compound 10 µM, first compound 0.00316 µM): 63.7%
viability, T/C (second compound 10 µM, first compound 0.01 µM): 21.6%
viability, T/C (second compound 10 µM, first compound 0.0316 µM): 9.29%
viability, T/C (second compound 10 µM, first compound 0.1 µM): 0.84%
viability, T/C (second compound 10 µM, first compound 0.316 µM): 0.24%
viability, T/C (second compound 10 µM, first compound 1 µM): 1.51%

Cn1ncnc1[C@H]1c2n[nH]c(=O)c3cc(F)cc(c23)N[C@@H]1c1ccc(F)cc1 + CNC(C)C(=O)NC1CN(S(=O)(=O)c2cccc(S(=O)(=O)N3CCC4CCC(C(=O)NC(c5ccccc5)c5ccccc5)N4C(=O)C(NC(=O)C(C)NC)C3)c2)CCC2CCC(C(=O)NC(c3ccccc3)c3ccccc3)N2C1=O
IC50 (second compound 0.01 µM): > 100 nM
IC50 (second compound 0.0316 µM): > 100 nM
IC50 (second compound 0.1 µM): > 100 nM
IC50 (second compound 0.316 µM): > 100 nM
IC50 (second compound 1 µM): > 100 nM
viability, T/C (second compound 0.01 µM, first compound 0.000316 µM): 78.9%
viability, T/C (second compound 0.01 µM, first compound 0.001 µM): 91.9%
viability, T/C (second compound 0.01 µM, first compound 0.00316 µM): 95.9%
viability, T/C (second compound 0.01 µM, first compound 0.01 µM): 101%
viability, T/C (second compound 0.01 µM, first compound 0.0316 µM): 89.3%
viability, T/C (second compound 0.01 µM, first compound 0.1 µM): 95.2%
viability, T/C (second compound 0.0316 µM, first compound 0.000316 µM): 103%
viability, T/C (second compound 0.0316 µM, first compound 0.001 µM): 98.5%
viability, T/C (second compound 0.0316 µM, first compound 0.00316 µM): 94.8%
viability, T/C (second compound 0.0316 µM, first compound 0.01 µM): 104%
viability, T/C (second compound 0.0316 µM, first compound 0.0316 µM): 104%
viability, T/C (second compound 0.0316 µM, first compound 0.1 µM): 92.4%
viability, T/C (second compound 0.1 µM, first compound 0.000316 µM): 95.3%
viability, T/C (second compound 0.1 µM, first compound 0.001 µM): 97.1%
viability, T/C [1]: 101%
viability, T/C [2]: 100%
viability, T/C [3]: 96%
viability, T/C [4]: 89%
viability, T/C (second compound 0.316 µM, first compound 0.000316 µM): 94.2%
viability, T/C (second compound 0.316 µM, first compound 0.001 µM): 97.4%
viability, T/C [5]: 94.8%
viability, T/C [6]: 95.3%
viability, T/C [7]: 97.8%
viability, T/C [8]: 90.7%
viability, T/C (second compound 1 µM, first compound 0.000316 µM): 85%
viability, T/C (second compound 1 µM, first compound 0.001 µM): 98.5%
viability, T/C [9]: 93.3%
viability, T/C [10]: 83.8%
viability, T/C [11]: 107%
viability, T/C [12]: 85.5%
